Assay results reported in PubChem BioAssay AID1745844 (Carcinogenic Potency Database (CPDB), 2022).

Test system: rodent lifetime carcinogenesis bioassay, tumor incidence TD50
Test: carcinogenic potency in animals, long-term in vivo studies, CPDB compilation (AID 1745844)
Conditions: rat, strain Wistar, in feed

With `O=P(O)(OCC(Br)CBr)OCC(Br)CBr` (configuration not stated) the TD50 (females, site: esophagus, lesion: squamous-cell papilloma, dosed 78 weeks, study length 78 weeks) was 107 mg/kg/day, the TD50 (females, site: esophagus, lesion: squamous-cell papilloma, dosed 96 weeks, study length 101 weeks) was 394 mg/kg/day and the TD50 (females, site: forestomach, lesion: several types, types named in the paper, dosed 78 weeks, study length 78 weeks) was 19.6 mg/kg/day. It also gave a TD50 (females, site: forestomach, lesion: several types, types named in the paper, dosed 96 weeks, study length 101 weeks) of 40 mg/kg/day, a TD50 (females, site: forestomach, lesion: squamous-cell carcinoma, dosed 78 weeks, study length 78 weeks) of 171 mg/kg/day and a TD50 (females, site: forestomach, lesion: squamous-cell carcinoma, dosed 96 weeks, study length 101 weeks) of 301 mg/kg/day. The TD50 (females, site: forestomach, lesion: squamous-cell papilloma, dosed 52 weeks, study length 52 weeks) was 47.6 mg/kg/day, the TD50 (females, site: forestomach, lesion: squamous-cell papilloma, dosed 78 weeks, study length 78 weeks) was 34.5 mg/kg/day and the TD50 (females, site: forestomach, lesion: squamous-cell papilloma, dosed 96 weeks, study length 101 weeks) was 60.3 mg/kg/day. For the same molecule, the TD50 (females, site: kidney, lesion: renal-cell adenoma, dosed 96 weeks, study length 101 weeks) was 1250 mg/kg/day, the TD50 (females, site: kidney, lesion: renal-cell carcinoma, dosed 96 weeks, study length 101 weeks) was 1250 mg/kg/day and the TD50 (females, site: kidney, lesion: several types, types named in the paper, dosed 96 weeks, study length 101 weeks) was 608 mg/kg/day. The TD50 (females, site: liver, lesion: hepatocellular adenoma, dosed 52 weeks, study length 52 weeks) was 33.2 mg/kg/day, the TD50 (females, site: liver, lesion: hepatocellular adenoma, dosed 78 weeks, study length 78 weeks) was 20.6 mg/kg/day and the TD50 (females, site: liver, lesion: hepatocellular carcinoma, dosed 52 weeks, study length 52 weeks) was 35.1 mg/kg/day. For the same molecule, the TD50 (females, site: liver, lesion: hepatocellular carcinoma, dosed 78 weeks, study length 78 weeks) was 20.1 mg/kg/day, the TD50 (females, site: liver, lesion: hepatocellular carcinoma, dosed 96 weeks, study length 101 weeks) was 37.1 mg/kg/day and the TD50 (females, site: liver, lesion: several types, types named in the paper, dosed 52 weeks, study length 52 weeks) was 11.8 mg/kg/day. The TD50 (females, site: liver, lesion: several types, types named in the paper, dosed 78 weeks, study length 78 weeks) was 11.9 mg/kg/day, the TD50 (females, site: liver, lesion: several types, types named in the paper, dosed 96 weeks, study length 101 weeks) was 27.8 mg/kg/day and the TD50 (females, site: small intestine, lesion: adenocarcinoma, dosed 78 weeks, study length 78 weeks) was 107 mg/kg/day. For the same molecule, the TD50 (females, site: small intestine, lesion: adenocarcinoma, dosed 96 weeks, study length 101 weeks) was 179 mg/kg/day, the TD50 (females, site: tongue, lesion: several types, types named in the paper, dosed 96 weeks, study length 101 weeks) was 301 mg/kg/day and the TD50 (females, site: tongue, lesion: squamous-cell papilloma, dosed 78 weeks, study length 78 weeks) was 107 mg/kg/day. For the same molecule, the TD50 (females, site: tongue, lesion: squamous-cell papilloma, dosed 96 weeks, study length 101 weeks) was 403 mg/kg/day, the TD50 (males, site: esophagus, lesion: several types, types named in the paper, dosed 90 weeks, study length 102 weeks) was 45.1 mg/kg/day and the TD50 (males, site: esophagus, lesion: squamous-cell papilloma, dosed 78 weeks, study length 78 weeks) was 16.5 mg/kg/day. It also gave a TD50 (males, site: esophagus, lesion: squamous-cell papilloma, dosed 90 weeks, study length 102 weeks) of 62.1 mg/kg/day, a TD50 (males, site: forestomach, lesion: several types, types named in the paper, dosed 52 weeks, study length 52 weeks) of 38.1 mg/kg/day and a TD50 (males, site: forestomach, lesion: several types, types named in the paper, dosed 90 weeks, study length 102 weeks) of 37.8 mg/kg/day. The TD50 (males, site: forestomach, lesion: squamous-cell carcinoma, dosed 52 weeks, study length 52 weeks) was 129 mg/kg/day, the TD50 (males, site: forestomach, lesion: squamous-cell carcinoma, dosed 90 weeks, study length 102 weeks) was 979 mg/kg/day and the TD50 (males, site: forestomach, lesion: squamous-cell papilloma, dosed 52 weeks, study length 52 weeks) was 60.9 mg/kg/day. It also gave a TD50 (males, site: forestomach, lesion: squamous-cell papilloma, dosed 78 weeks, study length 78 weeks) of 56.1 mg/kg/day, a TD50 (males, site: forestomach, lesion: squamous-cell papilloma, dosed 90 weeks, study length 102 weeks) of 43.5 mg/kg/day and a TD50 (males, site: kidney, lesion: renal-cell adenoma, dosed 78 weeks, study length 78 weeks) of 56.1 mg/kg/day. It also gave a TD50 (males, site: kidney, lesion: renal-cell adenoma, dosed 90 weeks, study length 102 weeks) of 45.1 mg/kg/day, a TD50 (males, site: kidney, lesion: renal-cell carcinoma, dosed 52 weeks, study length 52 weeks) of 129 mg/kg/day and a TD50 (males, site: kidney, lesion: several types, types named in the paper, dosed 90 weeks, study length 102 weeks) of 35 mg/kg/day. It also gave a TD50 (males, site: liver, lesion: hepatocellular adenoma, dosed 78 weeks, study length 78 weeks) of 28.3 mg/kg/day, a TD50 (males, site: liver, lesion: hepatocellular carcinoma, dosed 52 weeks, study length 52 weeks) of 129 mg/kg/day and a TD50 (males, site: liver, lesion: several types, types named in the paper, dosed 52 weeks, study length 52 weeks) of 129 mg/kg/day. For the same molecule, the TD50 (males, site: small intestine, lesion: adenocarcinoma, dosed 52 weeks, study length 52 weeks) was 60.9 mg/kg/day, the TD50 (males, site: small intestine, lesion: adenocarcinoma, dosed 90 weeks, study length 102 weeks) was 79 mg/kg/day and the TD50 (males, site: small intestine, lesion: adenoma, dosed 52 weeks, study length 52 weeks) was 129 mg/kg/day. It also gave a TD50 (males, site: small intestine, lesion: several types, types named in the paper, dosed 52 weeks, study length 52 weeks) of 38.1 mg/kg/day and a TD50 (males, site: tongue, lesion: squamous-cell carcinoma, dosed 78 weeks, study length 78 weeks) of 56.1 mg/kg/day.
